Patent publication US20110039721A1, “METHOD FOR PREDICTION ABOUT CARCINOGENICITY OF SUBSTANCE IN RODENT” (Chemicals Evaluation and Research Institute, priority 2007, published 2011)

How the values were obtained:
[1] = tested on: mRNA expressed from the genes (A) to (D) in rat liver; assay: Behavior of genes (mRNA expression level, oligo-DNA microarray) in rat liver after 28-day oral administration; type: in vivo
Procedure, shortened: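 Liver mRNA levels were compared with matched vehicle groups, with a shift of at least 1.5-fold up or down deemed significant unless its direction disagreed with other carcinogens. Test substances were dosed orally by gavage daily for 28 days to 5-week-old male F344 rats, four per group.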

rodent = details: in vivo; cited from earlier work
liver = details: in vivo; cited from earlier work
[2] = gene group (A), Unigene No. Rn.167075
[3] = gene group (C), Unigene No. Rn.120914

In the case of `OCCCl` [TS032, 2-Chloroethanol], the “Behavior of gene caused by administration of chemical substance, Gene No. 154” value ([1]; rat, in vivo) is reported as “−”, the “Behavior of gene caused by administration of chemical substance, Gene No. 533” value ([1]; rat, in vivo) is reported as “−” and the “Behavior of gene caused by administration of chemical substance, Gene No. 725” value ([1]; rat, in vivo) is reported as “−”. The “Behavior of gene caused by administration of chemical substance, Gene No. 813” value ([1]; rat, in vivo) was “−”, the “Behavior of gene caused by administration of chemical substance, Gene No. 893” value ([1]; rat, in vivo) was “−” and the “Behavior of gene caused by administration of chemical substance, Gene No. 1119” value ([1]; rat, in vivo) was “−”. For the same compound, the “Behavior of gene caused by administration of chemical substance, Gene No. 1131” value ([1]; rat, in vivo) was “−”, the “Behavior of gene caused by administration of chemical substance, Gene No. 1163” value ([1]; rat, in vivo) was “−” and the “Behavior of gene caused by administration of chemical substance, Gene No. 1334” value ([1]; rat, in vivo) was “−”. For the same compound, the “Behavior of gene caused by administration of chemical substance, Gene No. 1494” value ([1]; rat, in vivo) was “−”, the “Behavior of gene caused by administration of chemical substance, Gene No. 1562” value ([1]; rat, in vivo) was “−” and the “Behavior of gene caused by administration of chemical substance, Gene No. 1741” value ([1]; rat, in vivo) was “−”. The “Behavior of gene caused by administration of chemical substance, Gene No. 1993” value ([1]; rat, in vivo) was “−”, the “Behavior of gene caused by administration of chemical substance, Gene No. 2026” value ([1]; rat, in vivo) was “−” and the “Behavior of gene caused by administration of chemical substance, Gene No. 2045” value ([1]; rat, in vivo) was “−”. The “Behavior of gene caused by administration of chemical substance, Gene No. 2203” value ([1]; rat, in vivo) was “−”, the “Behavior of gene caused by administration of chemical substance, Gene No. 2494” value ([1]; rat, in vivo) was “−” and the “Behavior of gene caused by administration of chemical substance, Gene No. 2546” value ([1]; rat, in vivo) was “−”. The “Behavior of gene caused by administration of chemical substance, Gene No. 3776” value ([1]; rat, in vivo) was “−”, the “Behavior of gene caused by administration of chemical substance, Gene No. 3929” value ([1]; rat, in vivo) was “−” and the “Behavior of gene caused by administration of chemical substance, Gene No. 4095” value ([1]; rat, in vivo) was “−”. For the same compound, the “Behavior of gene caused by administration of chemical substance, Gene No. 4218” value ([1]; rat, in vivo) was “−”, the “Behavior of gene caused by administration of chemical substance, Gene No. 4846” value ([1]; rat, in vivo) was “−” and the “Behavior of gene caused by administration of chemical substance, Gene No. 4973” value ([1]; rat, in vivo) was “−”. The “Behavior of gene caused by administration of chemical substance, Gene No. 5600” value ([1]; rat, in vivo) was “−”, the “Behavior of gene caused by administration of chemical substance, Gene No. 5634” value ([1]; rat, in vivo) was “−” and the “Behavior of gene caused by administration of chemical substance, Gene No. 5726” value ([1]; rat, in vivo) was “−”. The “Behavior of gene caused by administration of chemical substance, Gene No. 5878” value ([1]; rat, in vivo) was “−”, the “Behavior of gene caused by administration of chemical substance, Gene No. 6026” value ([1]; rat, in vivo) was “−” and the “Behavior of gene caused by administration of chemical substance, Gene No. 6182” value ([1]; rat, in vivo) was “−”. The “Behavior of gene caused by administration of chemical substance, Gene No. 6303” value ([1]; rat, in vivo) was “−”, the “Behavior of gene caused by administration of chemical substance, Gene No. 6620” value ([1]; rat, in vivo) was “−” and the “Behavior of gene caused by administration of chemical substance, Gene No. 6742” value ([1]; rat, in vivo) was “−”. For the same compound, the Carcinogenicity (rodent) was “C−” and the Liver carcinogenicity (liver) was “Cr−”.

In the case of `CCC[N+](=O)[O-]` [TS036, 1-Nitropropane], the “Behavior of gene caused by administration of chemical substance, Gene No. 4846” value ([1]; gene group (A), Unigene No. Rn.144554) is reported as “−”, the “Behavior of gene caused by administration of chemical substance, Gene No. 2026” value [1, 2] is reported as “−” and the “Behavior of gene caused by administration of chemical substance, Gene No. 4218” value [1, 2] is reported as “−”. For the same compound, the “Behavior of gene caused by administration of chemical substance, Gene No. 6182” value ([1]; gene group (A), Unigene No. Rn.5834) was “−”, the “Behavior of gene caused by administration of chemical substance, Gene No. 5600” value ([1]; gene group (A), Unigene No. Rn.9836) was “−” and the “Behavior of gene caused by administration of chemical substance, Gene No. 1494” value ([1]; gene group (B), Unigene No. Rn.1430) was “−”. For the same compound, the “Behavior of gene caused by administration of chemical substance, Gene No. 2045” value ([1]; gene group (B), Unigene No. Rn.19329) was “−”, the “Behavior of gene caused by administration of chemical substance, Gene No. 2203” value ([1]; gene group (B), Unigene No. Rn.21240) was “−” and the “Behavior of gene caused by administration of chemical substance, Gene No. 533” value ([1]; gene group (C), Unigene No. Rn.106184) was “−”. For the same compound, the “Behavior of gene caused by administration of chemical substance, Gene No. 725” value ([1]; gene group (C), Unigene No. Rn.108075) was “+”, the “Behavior of gene caused by administration of chemical substance, Gene No. 1163” value ([1]; gene group (C), Unigene No. Rn.11766) was “−” and the “Behavior of gene caused by administration of chemical substance, Gene No. 4973” value ([1]; gene group (C), Unigene No. Rn.118529) was “+”. The “Behavior of gene caused by administration of chemical substance, Gene No. 4095” value ([1]; gene group (C), Unigene No. Rn.119024) was “+”, the “Behavior of gene caused by administration of chemical substance, Gene No. 1334” value [1, 3] was “−” and the “Behavior of gene caused by administration of chemical substance, Gene No. 6620” value [1, 3] was “−”. For the same compound, the “Behavior of gene caused by administration of chemical substance, Gene No. 6303” value ([1]; gene group (C), Unigene No. Rn.123063) was “−”, the “Behavior of gene caused by administration of chemical substance, Gene No. 5878” value ([1]; gene group (C), Unigene No. Rn.143213) was “+” and the “Behavior of gene caused by administration of chemical substance, Gene No. 1131” value ([1]; gene group (C), Unigene No. Rn.144946) was “+”. The “Behavior of gene caused by administration of chemical substance, Gene No. 1562” value ([1]; gene group (C), Unigene No. Rn.14744) was “+”, the “Behavior of gene caused by administration of chemical substance, Gene No. 1741” value ([1]; gene group (C), Unigene No. Rn.1647) was “+” and the “Behavior of gene caused by administration of chemical substance, Gene No. 893” value ([1]; gene group (C), Unigene No. Rn.164817) was “+”. For the same compound, the “Behavior of gene caused by administration of chemical substance, Gene No. 6026” value ([1]; gene group (C), Unigene No. Rn.167685) was “−”, the “Behavior of gene caused by administration of chemical substance, Gene No. 154” value ([1]; gene group (C), Unigene No. Rn.185941) was “+” and the “Behavior of gene caused by administration of chemical substance, Gene No. 1993” value ([1]; gene group (C), Unigene No. Rn.18728) was “+”. The “Behavior of gene caused by administration of chemical substance, Gene No. 813” value ([1]; gene group (C), Unigene No. Rn.201760) was “−”, the “Behavior of gene caused by administration of chemical substance, Gene No. 2494” value ([1]; gene group (C), Unigene No. Rn.23969) was “−” and the “Behavior of gene caused by administration of chemical substance, Gene No. 2546” value ([1]; gene group (C), Unigene No. Rn.24561) was “+”. The “Behavior of gene caused by administration of chemical substance, Gene No. 3776” value ([1]; gene group (C), Unigene No. Rn.43232) was “+”, the “Behavior of gene caused by administration of chemical substance, Gene No. 3929” value ([1]; gene group (C), Unigene No. Rn.4620) was “+” and the “Behavior of gene caused by administration of chemical substance, Gene No. 1119” value ([1]; gene group (C), Unigene No. Rn.9757) was “+”. The “Behavior of gene caused by administration of chemical substance, Gene No. 6742” value ([1]; gene group (C), Unigene No. Rn.9779) was “−”, the “Behavior of gene caused by administration of chemical substance, Gene No. 5634” value ([1]; gene group (C), Unigene No. Rn.9862) was “−” and the “Behavior of gene caused by administration of chemical substance, Gene No. 5726” value ([1]; gene group (D), Unigene No. Rn.9939) was “−”. The Carcinogenicity (rodent) was “C−” and the Liver carcinogenicity (liver) was “Cr−”.
